Data as given in PMC12300041, “Tricyclic Isatin Derivatives as Anti-Inflammatory Compounds with High Kinase Binding Affinity” (Molecules, 2025).

Key:
Assay in all cases: KINOMEscan
Assay type in all cases: binding
PRKD1 = target: T1, PRKD1 (Homo sapiens, UniProt Q15139)
T1 construct: purchased Eurofins DiscoverX KINOMEscan
In short: (§1)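 Compound and kinase were incubated at room temperature for 1 h, the free kinase fraction was captured with an immobilized affinity ligand, and capture was quantified by quantitative PCR; Kd values used a 12-point half-log series up to 33 μM.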

BMPR2 = target: T2, BMPR2 (Homo sapiens, UniProt Q13873)
T2 construct: purchased Eurofins DiscoverX KINOMEscan
In short: as §1

ITK = target: T3, ITK (Homo sapiens, UniProt Q08881)
T3 construct: purchased Eurofins DiscoverX KINOMEscan
In short: as §1

RIPK2 = target: T4, RIPK2 (Homo sapiens, UniProt O43353)
T4 construct: purchased Eurofins DiscoverX KINOMEscan
In short: as §1

MELK = target: T5, MELK (Homo sapiens, UniProt Q14680)
T5 construct: purchased Eurofins DiscoverX KINOMEscan
T5 sequence (Q14680 whole entry): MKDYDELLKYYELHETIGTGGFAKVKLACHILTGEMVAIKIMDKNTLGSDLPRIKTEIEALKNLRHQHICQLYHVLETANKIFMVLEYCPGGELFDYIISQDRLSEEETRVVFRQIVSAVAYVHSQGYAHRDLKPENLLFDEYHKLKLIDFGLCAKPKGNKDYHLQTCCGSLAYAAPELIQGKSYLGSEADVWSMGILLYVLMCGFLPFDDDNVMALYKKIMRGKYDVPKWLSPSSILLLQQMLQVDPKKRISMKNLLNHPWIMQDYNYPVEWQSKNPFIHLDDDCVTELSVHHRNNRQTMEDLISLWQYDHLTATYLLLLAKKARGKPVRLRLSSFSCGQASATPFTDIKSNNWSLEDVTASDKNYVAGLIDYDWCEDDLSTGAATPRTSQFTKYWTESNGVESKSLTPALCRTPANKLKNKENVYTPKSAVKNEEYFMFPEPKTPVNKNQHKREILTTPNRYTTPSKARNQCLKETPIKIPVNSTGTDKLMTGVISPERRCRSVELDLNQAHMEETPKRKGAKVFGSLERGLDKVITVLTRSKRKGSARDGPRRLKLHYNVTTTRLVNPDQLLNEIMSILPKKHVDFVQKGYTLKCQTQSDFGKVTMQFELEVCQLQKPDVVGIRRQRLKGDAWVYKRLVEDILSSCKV
In short: as §1

ABL1 (M351T)-P = target: T6, ABL1 (M351T)-P (Homo sapiens, UniProt P00519, M351T)
T6 construct: purchased Eurofins DiscoverX KINOMEscan
In short: as §1

ABL1 (H396P)-non-P = target: T7, ABL1 (H396P)-non-P (Homo sapiens, UniProt P00519, H396P)
T7 construct: purchased Eurofins DiscoverX KINOMEscan
In short: as §1

LZK = target: T8, LZK (Homo sapiens, UniProt O43283)
T8 construct: purchased Eurofins DiscoverX KINOMEscan
T8 sequence (O43283 whole entry): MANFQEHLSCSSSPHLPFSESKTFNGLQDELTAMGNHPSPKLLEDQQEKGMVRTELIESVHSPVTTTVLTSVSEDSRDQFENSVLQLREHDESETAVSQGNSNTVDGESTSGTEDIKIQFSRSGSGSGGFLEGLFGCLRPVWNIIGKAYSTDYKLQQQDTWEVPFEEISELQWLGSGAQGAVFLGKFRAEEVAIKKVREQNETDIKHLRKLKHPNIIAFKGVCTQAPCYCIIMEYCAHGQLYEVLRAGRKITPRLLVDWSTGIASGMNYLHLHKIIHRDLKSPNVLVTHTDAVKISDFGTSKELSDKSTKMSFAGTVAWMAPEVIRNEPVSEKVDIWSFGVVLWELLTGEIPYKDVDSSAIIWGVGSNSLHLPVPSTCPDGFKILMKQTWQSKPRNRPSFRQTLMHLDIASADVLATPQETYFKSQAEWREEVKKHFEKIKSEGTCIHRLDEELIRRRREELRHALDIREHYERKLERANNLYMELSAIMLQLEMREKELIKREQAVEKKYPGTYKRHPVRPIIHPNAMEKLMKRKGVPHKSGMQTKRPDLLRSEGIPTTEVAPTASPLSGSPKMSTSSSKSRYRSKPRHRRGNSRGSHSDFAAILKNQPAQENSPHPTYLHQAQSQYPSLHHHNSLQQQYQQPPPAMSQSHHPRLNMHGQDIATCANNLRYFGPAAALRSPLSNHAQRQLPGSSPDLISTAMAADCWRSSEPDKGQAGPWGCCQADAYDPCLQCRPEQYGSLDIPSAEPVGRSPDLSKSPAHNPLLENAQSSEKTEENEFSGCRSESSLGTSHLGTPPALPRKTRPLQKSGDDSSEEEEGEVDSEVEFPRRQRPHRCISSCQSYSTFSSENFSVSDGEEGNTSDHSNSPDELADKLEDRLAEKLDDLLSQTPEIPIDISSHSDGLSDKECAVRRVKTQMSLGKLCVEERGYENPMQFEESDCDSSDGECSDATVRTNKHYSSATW
In short: as §1

KIT-autoinhibited = target: T9, KIT-autoinhibited (Homo sapiens, UniProt P10721)
T9 construct: purchased Eurofins DiscoverX KINOMEscan
In short: as §1

FLT3 (D835Y) = target: T10, FLT3 (D835Y) (Homo sapiens, UniProt P36888, D835Y)
T10 construct: purchased Eurofins DiscoverX KINOMEscan
In short: as §1

[1] = target: T11, TYK2 (JH2 domain-pseudokinase) (Homo sapiens, UniProt P29597)
T11 construct: TYK2 (JH2 domain-pseudokinase); purchased Eurofins DiscoverX KINOMEscan
In short: as §1

PAK6 = target: T12, PAK6 (Homo sapiens, UniProt Q9NQU5)
T12 construct: purchased Eurofins DiscoverX KINOMEscan
In short: as §1

IKK-β = target: T13, IKK-β (Homo sapiens, UniProt O14920)
T13 construct: purchased Eurofins DiscoverX KINOMEscan
In short: as §1

PCTK2 = target: T14, PCTK2 (Homo sapiens, UniProt Q00537)
T14 construct: purchased Eurofins DiscoverX KINOMEscan
In short: as §1

TESK1 = target: T15, TESK1 (Homo sapiens, UniProt Q15569)
T15 construct: purchased Eurofins DiscoverX KINOMEscan
T15 sequence (Q15569 whole entry): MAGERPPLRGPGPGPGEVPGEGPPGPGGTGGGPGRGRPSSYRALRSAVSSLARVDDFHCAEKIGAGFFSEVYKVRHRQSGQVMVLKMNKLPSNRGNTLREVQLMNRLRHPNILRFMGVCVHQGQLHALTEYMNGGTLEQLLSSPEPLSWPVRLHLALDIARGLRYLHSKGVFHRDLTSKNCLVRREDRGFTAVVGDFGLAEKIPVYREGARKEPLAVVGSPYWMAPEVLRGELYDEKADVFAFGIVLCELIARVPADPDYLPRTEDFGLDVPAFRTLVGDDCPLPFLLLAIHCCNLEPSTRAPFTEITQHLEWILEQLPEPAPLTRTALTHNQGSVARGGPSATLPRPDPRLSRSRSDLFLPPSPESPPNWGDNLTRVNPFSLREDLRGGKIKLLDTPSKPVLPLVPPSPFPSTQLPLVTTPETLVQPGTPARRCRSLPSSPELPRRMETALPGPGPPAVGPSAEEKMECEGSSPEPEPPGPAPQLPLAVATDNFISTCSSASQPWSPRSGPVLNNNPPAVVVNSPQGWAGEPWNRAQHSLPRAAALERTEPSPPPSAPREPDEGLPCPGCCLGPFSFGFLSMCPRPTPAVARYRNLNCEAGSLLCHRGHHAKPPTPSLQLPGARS
In short: as §1

LIMK2 = target: T16, LIMK2 (Homo sapiens, UniProt P53671)
T16 construct: purchased Eurofins DiscoverX KINOMEscan
In short: as §1

CAMKK2 = target: T17, CAMKK2 (Homo sapiens, UniProt Q96RR4)
T17 construct: purchased Eurofins DiscoverX KINOMEscan
In short: as §1

YANK2 = target: T18, YANK2 (Homo sapiens, UniProt Q9NY57)
T18 construct: purchased Eurofins DiscoverX KINOMEscan
In short: as §1

EPHB2 = target: T19, EPHB2 (Homo sapiens, UniProt P29323)
T19 construct: purchased Eurofins DiscoverX KINOMEscan
In short: as §1

QSK = target: T20, QSK (Homo sapiens, UniProt Q9Y2K2)
T20 construct: purchased Eurofins DiscoverX KINOMEscan
In short: as §1

CSNK1E = target: T21, CSNK1E (Homo sapiens, UniProt P49674)
T21 construct: purchased Eurofins DiscoverX KINOMEscan
In short: as §1

MYO3A = target: T22, MYO3A (Homo sapiens, UniProt Q8NEV4)
T22 construct: purchased Eurofins DiscoverX KINOMEscan
In short: as §1

SGK = target: T23, SGK (Homo sapiens, UniProt O00141)
T23 construct: purchased Eurofins DiscoverX KINOMEscan
In short: as §1

LCK = target: T24, LCK (Homo sapiens, UniProt P06239)
T24 construct: purchased Eurofins DiscoverX KINOMEscan
In short: as §1

MARK4 = target: T25, MARK4 (Homo sapiens, UniProt Q96L34)
T25 construct: purchased Eurofins DiscoverX KINOMEscan
In short: as §1

AXL = target: T26, AXL (Homo sapiens, UniProt P30530)
T26 construct: purchased Eurofins DiscoverX KINOMEscan
In short: as §1

IRAK4 = target: T27, IRAK4 (Homo sapiens, UniProt Q9NWZ3)
T27 construct: purchased Eurofins DiscoverX KINOMEscan
In short: as §1

DCAMKL3 = target: T28, DCAMKL3 (Homo sapiens, UniProt Q9C098)
T28 construct: purchased Eurofins DiscoverX KINOMEscan
In short: as §1

LYN = target: T29, LYN (Homo sapiens, UniProt P07948)
T29 construct: purchased Eurofins DiscoverX KINOMEscan
In short: as §1

PIM2 = target: T30, PIM2 (Homo sapiens, UniProt Q9P1W9)
T30 construct: purchased Eurofins DiscoverX KINOMEscan
In short: as §1

NEK2 = target: T31, NEK2 (Homo sapiens, UniProt P51955)
T31 construct: purchased Eurofins DiscoverX KINOMEscan
T31 sequence (P51955 whole entry): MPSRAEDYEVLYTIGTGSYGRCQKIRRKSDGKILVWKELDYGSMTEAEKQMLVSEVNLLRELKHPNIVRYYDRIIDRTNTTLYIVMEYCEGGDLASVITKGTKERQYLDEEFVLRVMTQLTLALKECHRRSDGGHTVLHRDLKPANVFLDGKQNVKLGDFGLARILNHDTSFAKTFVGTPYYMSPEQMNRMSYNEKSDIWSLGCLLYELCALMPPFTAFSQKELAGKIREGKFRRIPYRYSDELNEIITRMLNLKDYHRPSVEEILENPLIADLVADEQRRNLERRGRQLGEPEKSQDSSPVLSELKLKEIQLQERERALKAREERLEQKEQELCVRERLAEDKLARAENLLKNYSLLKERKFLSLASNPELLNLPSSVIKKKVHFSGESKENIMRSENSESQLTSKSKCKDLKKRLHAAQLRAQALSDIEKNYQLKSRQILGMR
In short: as §1

CAMK1G = target: T32, CAMK1G (Homo sapiens, UniProt Q96NX5)
T32 construct: purchased Eurofins DiscoverX KINOMEscan
In short: as §1

MARK2 = target: T33, MARK2 (Homo sapiens, UniProt Q7KZI7)
T33 construct: purchased Eurofins DiscoverX KINOMEscan
In short: as §1

MAP4K2 = target: T34, MAP4K2 (Homo sapiens, UniProt Q12851)
T34 construct: purchased Eurofins DiscoverX KINOMEscan
In short: as §1

PLK1 = target: T35, PLK1 (Homo sapiens, UniProt P53350)
T35 construct: purchased Eurofins DiscoverX KINOMEscan
In short: as §1

PRKCQ = target: T36, PRKCQ (Homo sapiens, UniProt Q04759)
T36 construct: purchased Eurofins DiscoverX KINOMEscan
T36 sequence (Q04759 whole entry): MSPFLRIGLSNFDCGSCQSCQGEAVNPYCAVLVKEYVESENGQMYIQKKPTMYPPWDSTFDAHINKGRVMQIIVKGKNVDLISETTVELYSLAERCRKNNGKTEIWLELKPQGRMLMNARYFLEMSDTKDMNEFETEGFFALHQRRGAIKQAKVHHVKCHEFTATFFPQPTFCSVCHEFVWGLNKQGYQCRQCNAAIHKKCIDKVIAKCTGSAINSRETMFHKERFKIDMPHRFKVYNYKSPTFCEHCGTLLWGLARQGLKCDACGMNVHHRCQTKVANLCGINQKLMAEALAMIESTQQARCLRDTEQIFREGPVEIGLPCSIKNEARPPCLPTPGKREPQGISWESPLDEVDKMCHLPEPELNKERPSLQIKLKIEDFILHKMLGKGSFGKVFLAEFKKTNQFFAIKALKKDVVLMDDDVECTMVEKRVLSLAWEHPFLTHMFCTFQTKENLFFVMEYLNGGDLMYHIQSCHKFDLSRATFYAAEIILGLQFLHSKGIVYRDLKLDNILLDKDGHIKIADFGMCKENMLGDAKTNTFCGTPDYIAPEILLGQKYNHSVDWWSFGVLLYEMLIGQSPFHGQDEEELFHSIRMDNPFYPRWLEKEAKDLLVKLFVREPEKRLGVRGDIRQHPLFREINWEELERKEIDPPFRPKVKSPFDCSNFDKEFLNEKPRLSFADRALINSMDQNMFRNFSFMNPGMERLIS
In short: as §1

GRK2 = target: T37, GRK2 (Homo sapiens, UniProt P25098)
T37 construct: purchased Eurofins DiscoverX KINOMEscan
In short: as §1

NDR2 = target: T38, NDR2 (Homo sapiens, UniProt Q9Y2H1)
T38 construct: purchased Eurofins DiscoverX KINOMEscan
T38 sequence (Q9Y2H1 whole entry): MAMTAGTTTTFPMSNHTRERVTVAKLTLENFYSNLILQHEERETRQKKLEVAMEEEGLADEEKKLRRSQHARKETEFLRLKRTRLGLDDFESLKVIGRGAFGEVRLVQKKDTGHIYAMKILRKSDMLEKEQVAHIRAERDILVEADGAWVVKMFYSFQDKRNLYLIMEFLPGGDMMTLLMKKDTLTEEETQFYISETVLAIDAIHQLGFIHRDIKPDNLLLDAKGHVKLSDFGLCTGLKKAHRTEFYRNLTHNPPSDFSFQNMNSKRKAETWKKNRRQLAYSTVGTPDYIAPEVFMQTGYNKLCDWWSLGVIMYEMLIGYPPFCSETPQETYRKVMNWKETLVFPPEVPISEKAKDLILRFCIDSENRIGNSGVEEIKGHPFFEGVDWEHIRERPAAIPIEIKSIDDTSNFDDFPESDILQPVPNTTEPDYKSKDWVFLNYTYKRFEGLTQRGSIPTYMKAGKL
In short: as §1

AKT1 = target: T39, AKT1 (Homo sapiens, UniProt P31749)
T39 construct: purchased Eurofins DiscoverX KINOMEscan
In short: as §1

ULK3 = target: T40, ULK3 (Homo sapiens, UniProt Q6PHR2)
T40 construct: purchased Eurofins DiscoverX KINOMEscan
In short: as §1

T1 sequence (Q15139 whole entry): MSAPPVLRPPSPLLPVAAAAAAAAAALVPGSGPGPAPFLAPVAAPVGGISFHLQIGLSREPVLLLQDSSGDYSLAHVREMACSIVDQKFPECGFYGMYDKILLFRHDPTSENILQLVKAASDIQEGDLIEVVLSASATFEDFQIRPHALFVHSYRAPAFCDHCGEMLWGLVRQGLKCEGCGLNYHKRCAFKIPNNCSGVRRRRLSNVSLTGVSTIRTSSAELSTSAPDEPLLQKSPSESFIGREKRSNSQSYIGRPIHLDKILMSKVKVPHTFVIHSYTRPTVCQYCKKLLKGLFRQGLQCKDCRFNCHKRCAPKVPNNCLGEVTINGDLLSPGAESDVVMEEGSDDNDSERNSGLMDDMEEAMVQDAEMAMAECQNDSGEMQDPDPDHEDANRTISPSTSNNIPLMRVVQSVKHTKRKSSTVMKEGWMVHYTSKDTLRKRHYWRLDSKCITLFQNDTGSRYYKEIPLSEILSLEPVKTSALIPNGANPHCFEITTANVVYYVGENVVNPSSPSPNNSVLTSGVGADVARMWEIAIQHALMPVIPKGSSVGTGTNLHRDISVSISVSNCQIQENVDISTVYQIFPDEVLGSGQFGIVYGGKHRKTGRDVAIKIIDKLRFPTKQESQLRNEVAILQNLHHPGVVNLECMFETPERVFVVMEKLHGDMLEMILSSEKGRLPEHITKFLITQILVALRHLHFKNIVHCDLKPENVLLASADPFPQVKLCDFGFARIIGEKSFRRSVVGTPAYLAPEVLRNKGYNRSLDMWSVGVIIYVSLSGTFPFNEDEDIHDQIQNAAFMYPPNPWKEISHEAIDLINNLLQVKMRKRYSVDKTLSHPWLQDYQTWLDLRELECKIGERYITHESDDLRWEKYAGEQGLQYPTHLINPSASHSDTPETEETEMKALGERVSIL

O=C1Nc2c(cc([N+](=O)[O-])c3c2CCCC3)C1=NO [Compound 5d, 3-(Hydroxyimino)-5-nitro-1,3,6,7,8,9-hexahydro-2H-benzo[g]indol-2-one]
inhibition at 10 µM (PRKD1): 61% | inhibition at 10 µM (BMPR2): 64% | inhibition at 10 µM (ITK): 0% | inhibition at 10 µM (RIPK2): 0% | inhibition at 10 µM (MELK): 56% | inhibition at 10 µM (ABL1 (M351T)-P): 5% | inhibition at 10 µM (ABL1 (H396P)-non-P): 65% | inhibition at 10 µM (LZK): 0% | inhibition at 10 µM (KIT-autoinhibited): 0% | inhibition at 10 µM (FLT3 (D835Y)): 54% | inhibition at 10 µM [1]: 89.8% | inhibition at 10 µM (PAK6): 39% | inhibition at 10 µM (IKK-β): 50% | inhibition at 10 µM (PCTK2): 0% | inhibition at 10 µM (TESK1): 9% | inhibition at 10 µM (LIMK2): 0% | inhibition at 10 µM (CAMKK2): 56% | inhibition at 10 µM (YANK2): 0% | inhibition at 10 µM (EPHB2): 11% | inhibition at 10 µM (QSK): 14% | inhibition at 10 µM (CSNK1E): 80% | inhibition at 10 µM (MYO3A): 51% | inhibition at 10 µM (SGK): 91.1% | inhibition at 10 µM (LCK): 29% | inhibition at 10 µM (MARK4): 20% | inhibition at 10 µM (AXL): 17% | inhibition at 10 µM (IRAK4): 86% | inhibition at 10 µM (DCAMKL3): 10% | inhibition at 10 µM (LYN): 9% | inhibition at 10 µM (PIM2): 96% | inhibition at 10 µM (NEK2): 16% | inhibition at 10 µM (CAMK1G): 29% | inhibition at 10 µM (MARK2): 36% | inhibition at 10 µM (MAP4K2): 53% | inhibition at 10 µM (PLK1): 71% | inhibition at 10 µM (PRKCQ): 7% | inhibition at 10 µM (GRK2): 48% | inhibition at 10 µM (NDR2): 13% | inhibition at 10 µM (AKT1): 10% | inhibition at 10 µM (ULK3): 55%
